Source: patent US20240208992A1, “MACROCYCLES AS CFTR MODULATORS” (Idorsia Pharmaceuticals Ltd, priority 2021, published 2024)

Target: human F508del-CFTR (Homo sapiens, UniProt P13569, DEL508-508)
Test: F508del-CFTR cell surface expression (corrector activity), DiscoveRx ß-galactosidase complementation chemiluminescence assay in recombinant U2OS cell line;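 note: U2OS cells co-expressing ProLink-tagged F508del-CFTR and a membrane-anchored enzyme acceptor, where more surface CFTR restores β-galactosidase activity measured by chemiluminescence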
Conditions: for EC50: EC50, F508del-CFTR cell surface expression, 16h compound incubation, geomean values; for Emax: U2OS, in relation to Emax of corrector lumacaftor (=100%), arithmetic mean values

Chain of human F508del-CFTR (P13569 with tags, fused parts or gaps DEL508-508): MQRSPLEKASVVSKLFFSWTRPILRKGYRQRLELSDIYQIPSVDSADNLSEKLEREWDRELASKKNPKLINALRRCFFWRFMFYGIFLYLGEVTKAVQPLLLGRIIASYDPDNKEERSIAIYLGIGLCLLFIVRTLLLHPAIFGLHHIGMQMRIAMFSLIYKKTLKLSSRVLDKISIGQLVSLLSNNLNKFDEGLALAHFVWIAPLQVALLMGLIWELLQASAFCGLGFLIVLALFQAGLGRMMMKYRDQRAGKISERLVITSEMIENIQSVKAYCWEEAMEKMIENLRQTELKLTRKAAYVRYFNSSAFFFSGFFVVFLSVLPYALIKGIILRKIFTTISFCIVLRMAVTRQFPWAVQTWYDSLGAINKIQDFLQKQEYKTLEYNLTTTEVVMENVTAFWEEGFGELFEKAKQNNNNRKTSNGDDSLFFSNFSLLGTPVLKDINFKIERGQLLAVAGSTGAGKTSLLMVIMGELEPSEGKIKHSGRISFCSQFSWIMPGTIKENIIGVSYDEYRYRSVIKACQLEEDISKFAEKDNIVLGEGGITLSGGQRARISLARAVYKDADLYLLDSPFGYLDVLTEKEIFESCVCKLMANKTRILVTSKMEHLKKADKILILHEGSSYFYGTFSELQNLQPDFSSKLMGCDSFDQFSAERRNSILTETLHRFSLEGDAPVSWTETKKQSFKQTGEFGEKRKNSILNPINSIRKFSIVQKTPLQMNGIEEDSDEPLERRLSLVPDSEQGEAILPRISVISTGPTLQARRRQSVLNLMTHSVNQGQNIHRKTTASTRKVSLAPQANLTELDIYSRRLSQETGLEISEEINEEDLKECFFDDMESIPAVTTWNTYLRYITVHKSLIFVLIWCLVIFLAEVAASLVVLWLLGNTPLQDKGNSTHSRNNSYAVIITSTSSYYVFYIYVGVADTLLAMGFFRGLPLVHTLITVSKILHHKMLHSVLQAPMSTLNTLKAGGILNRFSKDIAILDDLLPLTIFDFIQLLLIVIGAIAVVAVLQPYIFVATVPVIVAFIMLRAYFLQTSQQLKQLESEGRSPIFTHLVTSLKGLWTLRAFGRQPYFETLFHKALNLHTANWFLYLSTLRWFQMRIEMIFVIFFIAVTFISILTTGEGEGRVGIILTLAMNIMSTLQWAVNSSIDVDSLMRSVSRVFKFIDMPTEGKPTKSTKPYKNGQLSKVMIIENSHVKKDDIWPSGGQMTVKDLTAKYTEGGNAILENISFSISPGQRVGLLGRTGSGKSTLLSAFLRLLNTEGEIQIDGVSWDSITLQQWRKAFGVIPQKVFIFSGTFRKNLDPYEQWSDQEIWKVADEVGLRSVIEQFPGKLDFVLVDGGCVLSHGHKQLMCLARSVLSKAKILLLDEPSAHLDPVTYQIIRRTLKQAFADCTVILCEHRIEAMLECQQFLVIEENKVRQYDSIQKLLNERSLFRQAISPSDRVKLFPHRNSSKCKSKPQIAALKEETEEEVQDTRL

| Compound | EC50 (U2OS cell line) [µM] | EC50 (U2OS cells) [µM] | Emax [%] |
| --- | --- | --- | --- |
| CN1C(=O)C[C@@H](C(=O)NCCc2ccc3c(c2)OCO3)NC(=O)c2c(ccc3ccccc23)OC[C@@H](Cc2ccccc2)NC(=O)CN(CCC2CCCCC2)C(=O)[C@@H]1CC1CCCC1 (mixture of isomers) [Example 290, (3RS,7S,13R)-N-(2-(benzo[d][1,3]dioxol-5-yl)ethyl)-13-benzyl-9-(2-cyclohexylethyl)-7-(cyclopentylmethyl)-6-methyl-1,5,8,11-tetraoxo-1,2,3,4,5,6,7,8,9,10,11,12,13,14-tetradecahydronaphtho[1,2-p][1]oxa[4,7,10,14]tetraazacycloheptadecine-3-carboxamide] | 0.188 | – | – |
| CN1C(=O)C[C@@H](C(=O)NCCc2ccc3c(c2)OCO3)NC(=O)c2c(ccc3ccccc23)OC[C@@H](Cc2ccccc2)NC(=O)CN(CCC2CCCCC2)C(=O)[C@@H]1CC1CCC1 (mixture of isomers) [Example 292, (3RS,7S,13R)-N-(2-(benzo[d][1,3]dioxol-5-yl)ethyl)-13-benzyl-7-(cyclobutylmethyl)-9-(2-cyclohexylethyl)-6-methyl-1,5,8,11-tetraoxo-1,2,3,4,5,6,7,8,9,10,11,12,13,14-tetradecahydronaphtho[1,2-p][1]oxa[4,7,10,14]tetraazacycloheptadecine-3-carboxamide] | 0.114 | – | – |
| COc1cccc(CCNC(=O)[C@@H]2CC(=O)N(C)[C@@H](CC3CCCC3)C(=O)N(C[C@@H]3CCCCO3)CC(=O)N[C@H](Cc3ccccc3)COc3ccc4ccccc4c3C(=O)N2)c1 (mixture of isomers) [Example 293, (3RS,7S,13R)-13-benzyl-7-(cyclopentylmethyl)-N-(3-methoxyphenethyl)-6-methyl-1,5,8,11-tetraoxo-9-(((S)-tetrahydro-2H-pyran-2-yl)methyl)-1,2,3,4,5,6,7,8,9,10,11,12,13,14-tetradecahydronaphtho[1,2-p][1]oxa[4,7,10,14]tetraazacycloheptadecine-3-carboxamide] | 0.34 | – | – |
| COc1cccc(CCNC(=O)[C@@H]2CC(=O)N(C)[C@@H](CC3CCCC3)C(=O)N(C[C@@H]3CCCCO3)CC(=O)N[C@H](Cc3ccccc3)COc3ccc4ccccc4c3C(=O)N2)c1 (mixture of isomers) [Example 295, (3RS,7S,13R)-13-benzyl-7-(cyclopentylmethyl)-N-(3-methoxyphenethyl)-6-methyl-1,5,8,11-tetraoxo-9-(((R)-tetrahydro-2H-pyran-2-yl)methyl)-1,2,3,4,5,6,7,8,9,10,11,12,13,14-tetradecahydronaphtho[1,2-p][1]oxa[4,7,10,14]tetraazacycloheptadecine-3-carboxamide] | 0.202 | – | – |
| COc1cccc(CCNC(=O)[C@@H]2CC(=O)N(C)[C@@H](CC3CCCCC3)C(=O)N(C[C@H]3CCCCO3)CC(=O)N[C@H](Cc3ccccc3)COc3ccc4ccccc4c3C(=O)N2)c1 (mixture of isomers) [Example 296, (3RS,7S,13R)-13-benzyl-7-(cyclohexylmethyl)-N-(3-methoxyphenethyl)-6-methyl-1,5,8,11-tetraoxo-9-(((R)-tetrahydro-2H-pyran-2-yl)methyl)-1,2,3,4,5,6,7,8,9,10,11,12,13,14-tetradecahydronaphtho[1,2-p][1]oxa[4,7,10,14]tetraazacycloheptadecine-3-carboxamide] | 0.158 | – | – |
| COc1cccc(CCNC(=O)[C@@H]2CC(=O)N(C)[C@@H](CC3CCCC3)C(=O)N(CCC3CCCCC3)CC(=O)N[C@H](Cc3ccccc3)COc3ccc4ccccc4c3C(=O)N2)c1 (mixture of isomers) [Example 300, (3RS,7S,13R)-13-benzyl-9-(2-cyclohexylethyl)-7-(cyclopentylmethyl)-N-(3-methoxyphenethyl)-6-methyl-1,5,8,11-tetraoxo-1,2,3,4,5,6,7,8,9,10,11,12,13,14-tetradecahydronaphtho[1,2-p][1]oxa[4,7,10,14]tetraazacycloheptadecine-3-carboxamide] | 0.103 | – | – |
| COc1cccc(CCNC(=O)[C@@H]2CC(=O)N(C)[C@@H](CC3CCCCC3)C(=O)N(CCC3CCCCC3)CC(=O)N[C@H](Cc3ccccc3)COc3ccc4ccccc4c3C(=O)N2)c1 (mixture of isomers) [Example 301, (3RS,7S,13R)-13-benzyl-9-(2-cyclohexylethyl)-7-(cyclohexylmethyl)-N-(3-methoxyphenethyl)-6-methyl-1,5,8,11-tetraoxo-1,2,3,4,5,6,7,8,9,10,11,12,13,14-tetradecahydronaphtho[1,2-p][1]oxa[4,7,10,14]tetraazacycloheptadecine-3-carboxamide] | 0.112 | – | – |
| COc1cc2c(cn1)OC[C@@H](Cc1ccccc1)NC(=O)[C@@H]1CCCCN1C(=O)[C@H](CC(C)C)N(C)C(=O)C[C@@H](C(=O)NCCc1noc(C3CC3)n1)NC2=O (mixture of isomers) [Example 516, (7S,11S,17aRS,20R)-20-benzyl-N-(2-(5-cyclopropyl-1,2,4-oxadiazol-3-yl)ethyl)-11-isobutyl-3-methoxy-10-methyl-5,9,12,18-tetraoxo-5,6,7,8,9,10,11,12,15,16,17,17a,18,19,20,21-hexadecahydro-14H-dipyrido[2,1-f:4′,3′-p][1]oxa[4,7,10,14]tetraazacycloheptadecine-7-carboxamide] | – | 0.494 | 155 |
| COc1cccc(CCNC(=O)[C@@H]2CC(=O)N(C)[C@@H](CC(C)C)C(=O)N3CCc4ccccc4[C@H]3C(=O)N[C@H](Cc3ccccc3)COc3ccnc(OC)c3C(=O)N2)c1 (mixture of isomers) [Example 569, (7S,11S,19bRS,22R)-22-benzyl-11-isobutyl-4-methoxy-N-(3-methoxyphenethyl)-10-methyl-5,9,12,20-tetraoxo-5,6,7,8,9,10,11,12,15,19b,20,21,22,23-tetradecahydro-14H-pyrido[3′,4′:16,17][1]oxa[4,7,10,14]tetraazacycloheptadecino[6,7-a]isoquinoline-7-carboxamide] | – | 0.108 | 270 |
| COc1cccc(CCNC(=O)[C@@H]2CC(=O)N(C)[C@@H](CC(C)C)C(=O)N(C)[C@@H](C)C(=O)N[C@H](Cc3ccccc3)COc3ccc4cc(C)oc4c3C(=O)N2)c1 (mixture of isomers) [Example 575, (8R,11RS,14S,18S)-8-benzyl-14-isobutyl-N-(3-methoxyphenethyl)-2,11,12,15-tetramethyl-10,13,16,20-tetraoxo-7,8,9,10,11,12,13,14,15,16,17,18,19,20-tetradecahydrobenzofuro[7,6-p][1]oxa[4,7,10,14]tetraazacycloheptadecine-18-carboxamide] | – | 0.411 | 273 |
| Cc1cc(CCNC(=O)[C@@H]2CC(=O)N(C)[C@@H](CC(C)C)C(=O)N(C)[C@@H](C)C(=O)N[C@H](Cc3ccccc3)COc3ccc4cc(C)oc4c3C(=O)N2)on1 (mixture of isomers) [Example 576, (8R,11RS,14S,18S)-8-benzyl-14-isobutyl-2,11,12,15-tetramethyl-N-(2-(3-methylisoxazol-5-yl)ethyl)-10,13,16,20-tetraoxo-7,8,9,10,11,12,13,14,15,16,17,18,19,20-tetradecahydrobenzofuro[7,6-p][1]oxa[4,7,10,14]tetraazacycloheptadecine-18-carboxamide] | – | 0.523 | 268 |
| COc1cccc(CCNC(=O)[C@@H]2CC(=O)N(C)[C@@H](CC(C)C)C(=O)N3CCOC[C@H]3C(=O)N[C@H](Cc3ccccc3)COc3ccc4c(C)noc4c3C(=O)N2)c1 (mixture of isomers) [Example 624, (4aRS,7R,17S,21S)-7-benzyl-21-isobutyl-N-(3-methoxyphenethyl)-12,20-dimethyl-5,15,19,22-tetraoxo-1,2,4,4a,5,6,7,8,15,16,17,18,19,20,21,22-hexadecahydroisoxazolo[4′,5′:5,6]benzo[1,2-p][1,4]oxazino[3,4-f][1]oxa[4,7,10,14]tetraazacycloheptadecine-17-carboxamide] | – | 0.921 | 171 |
| COc1cc2c(cn1)OC[C@@H](Cc1ccccc1)NC(=O)[C@@H]1CCCCN1C(=O)[C@H](CC(C)C)N(C)C(=O)C[C@@H](C(=O)NCCc1cc(C3CC3)no1)NC2=O (mixture of isomers) [Example 652, (7S,11S,17aRS,20R)-20-benzyl-N-(2-(3-cyclopropylisoxazol-5-yl)ethyl)-11-isobutyl-3-methoxy-10-methyl-5,9,12,18-tetraoxo-5,6,7,8,9,10,11,12,15,16,17,17a,18,19,20,21-hexadecahydro-14H-dipyrido[2,1-f:4′,3′-p][1]oxa[4,7,10,14]tetraazacycloheptadecine-7-carboxamide] | – | 0.593 | 155 |
| COc1cccc(CCNC(=O)[C@@H]2CC(=O)N(C)[C@@H](CC(C)C)C(=O)N(C)[C@@H](COC(C)(C)C)C(=O)N[C@H](Cc3ccccc3)COc3ccc4ccccc4c3C(=O)N2)c1 (mixture of isomers) [Example 717, (3S,7S,10RS,13R)-13-benzyl-10-(tert-butoxymethyl)-7-isobutyl-N-(3-methoxyphenethyl)-6,9-dimethyl-1,5,8,11-tetraoxo-1,2,3,4,5,6,7,8,9,10,11,12,13,14-tetradecahydronaphtho[1,2-p][1]oxa[4,7,10,14]tetraazacycloheptadecine-3-carboxamide] | – | 0.069 | 348 |
| COc1cccc(CCNC(=O)[C@@H]2CC(=O)N(C)[C@@H](CC(C)C)C(=O)N(C)[C@@H](CO)C(=O)N[C@H](Cc3ccccc3)COc3ccc4ccccc4c3C(=O)N2)c1 (mixture of isomers) [Example 718, (3S,7S,10RS,13R)-13-benzyl-10-(hydroxymethyl)-7-isobutyl-N-(3-methoxyphenethyl)-6,9-dimethyl-1,5,8,11-tetraoxo-1,2,3,4,5,6,7,8,9,10,11,12,13,14-tetradecahydronaphtho[1,2-p][1]oxa[4,7,10,14]tetraazacycloheptadecine-3-carboxamide] | – | 0.359 | – |
